# Test system: nuclear export of the PLZF protein
# Experiment: Inhibitory effect against the nuclear export of the PLZF protein by processing (CFP-PLZF in nucleus, TPA treatment)
# Format: cell-based, Human
# Conditions: HT1080/HB-EGF transfected with CFP-PLZF; 100 nM TPA 60 min in copresence of LMB 10 ng/ml; FIG. 7
# Description: Each transfectant containing CFP-PLZF was cultured for 24 hours, and then 100 nM TPA was added thereto for treatment for 60 min. The number (N) of the cells expressing CFP-PLZF in the nucleus and the number (C) of the cells in which CFP-PLZF has leaked into the cytoplasm are counted under observation with a fluorescent microscope before and after the TPA treatment, and the ratio of the number (N) of the cells expressing CFP-PLZF in the nucleus to the total number (N+C) of the cells expressing CFP-PLZF is calculated and thus obtained (N/(N+C)×100 (%)). The wild-type HT1080 cells (the above described 1)) were used as the control for comparison.
# HT1080/HB-EGF to which CFP-PLZF had been transfected (see Test Example 3) was cultured for 24 hours, and then treated with 100 nM TPA in the copresence of LMB (10 ng/ml) for 60 min. The number of the cells expressing CFP-PLZF in the nucleus was measured with a microscope before and after the TPA treatment and the ratio was calculated.
# As the control, the ratio of the number of the cells expressing CFP-PLZF before and after the TPA treatment when the TPA treatment was performed without adding LMB was obtained, and compared with the ratio when LMB was added. Thus, the compound LMB to be tested was evaluated. • 3. Test Results
smiles,measurement,value
"CCC(=C/[C@H](C)C/C=C/C(C)=C/[C@@H](C)C(=O)[C@@H](C)[C@H](O)[C@@H](C)C/C(C)=C/C(=O)O)/C=C/[C@@H]1OC(=O)C=C[C@@H]1C [LMB, reptomycin B]",inhibition of the nuclear export of the PLZF protein (ratio of cells expressing CFP-PLZF in the nucleus before and after TPA treatment),inhibited the nuclear export of the PLZF protein
